Experiments:
Format in all cases: in vivo
rice (Oryza sativa) = assay: Test B flooded paddy test, plant response rating; settings: 250 g ai/ha, Flood, scale of 0 to 100 where 0 is no effect and 100 is complete control, 13 to 15 days
How it was run: (§1)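 Pots were flooded to 3 cm above the soil surface at treatment, compound applied directly to the paddy water, and that depth held throughout. Plants were kept in a greenhouse for 13 to 15 days, then visually rated against untreated controls.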

[1] = test system: ducksalad (Heteranthera limosa); assay: Test B flooded paddy test, plant response rating; settings: 250 g ai/ha, Flood, scale of 0 to 100 where 0 is no effect and 100 is complete control, 13 to 15 days
How it was run: as §1

[2] = test system: sedge, umbrella (small-flower umbrella sedge, Cyperus difformis); assay: Test B flooded paddy test, plant response rating; settings: 250 g ai/ha, Flood, scale of 0 to 100 where 0 is no effect and 100 is complete control, 13 to 15 days
How it was run: as §1

[3] = test system: barnyardgrass (Echinochloa crus-galli); assay: Test B flooded paddy test, plant response rating; settings: 250 g ai/ha, Flood, scale of 0 to 100 where 0 is no effect and 100 is complete control, 13 to 15 days
How it was run: as §1

[4] = test system: ragweed (common ragweed, Ambrosia elatior); assay: Test A preemergence, visual injury rating; settings: for Plant response rating, Ragweed: 31 g ai/ha, 0 to 100 scale, 0 no effect, 100 complete control
How it was run: (§2)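 Compounds in non-phytotoxic solvent with surfactant applied as soil spray preemergence, or postemergence to plants 2-10 cm at one- to two-leaf stage, in loam/sand. After approximately 10 days in greenhouse, injury rated visually versus untreated controls, 0 (no effect) to 100 (complete control).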

[5] = test system: pigweed (Amaranthus retroflexus); assay: Test A preemergence, visual injury rating; settings: for Plant response rating, Pigweed: 31 g ai/ha, 0 to 100 scale, 0 no effect, 100 complete control
How it was run: as §2

[6] = test system: giant foxtail (Setaria faberii); assay: Test A preemergence, visual injury rating; settings: for Plant response rating, Foxtail, Giant: 31 g ai/ha, 0 to 100 scale, 0 no effect, 100 complete control
How it was run: as §2

[7] = test system: Italian ryegrass (Lolium multiflorum); assay: Test A preemergence, visual injury rating; settings: for Plant response rating, Ryegrass, Italian: 31 g ai/ha, 0 to 100 scale, 0 no effect, 100 complete control
How it was run: as §2

[8] = test system: barnyardgrass (Echinochloa crus-galli); assay: Test A preemergence, visual injury rating; settings: for Plant response rating, Barnyardgrass: 31 g ai/ha, 0 to 100 scale, 0 no effect, 100 complete control
How it was run: as §2

kochia (Kochia scoparia) [9] = assay: Test A preemergence, visual injury rating; settings: for Plant response rating, Kochia: 31 g ai/ha, 0 to 100 scale, 0 no effect, 100 complete control
How it was run: as §2

[10] = test system: ragweed (common ragweed, Ambrosia elatior); assay: Test A postemergence, visual injury rating; settings: 0 is no effect, 100 is complete control; for Ragweed plant response rating: 31 g ai/ha, 0 to 100 scale, approximately 10 days
How it was run: as §2

[11] = test system: pigweed (Amaranthus retroflexus); assay: Test A postemergence, visual injury rating; settings: 0 is no effect, 100 is complete control; for Pigweed plant response rating: 31 g ai/ha, 0 to 100 scale, approximately 10 days
How it was run: as §2

corn (Zea mays) = assay: Test A postemergence, visual injury rating; settings: 0 is no effect, 100 is complete control; for Corn plant response rating: 31 g ai/ha, 0 to 100 scale, approximately 10 days
How it was run: as §2

[12] = test system: wheat (Triticum aestivum); assay: Test A postemergence, visual injury rating; settings: 0 is no effect, 100 is complete control; for Wheat plant response rating: 31 g ai/ha, 0 to 100 scale, approximately 10 days
How it was run: as §2

[13] = test system: giant foxtail (Setaria faberii); assay: Test A postemergence, visual injury rating; settings: 0 is no effect, 100 is complete control; for Foxtail, Giant plant response rating: 31 g ai/ha, 0 to 100 scale, approximately 10 days
How it was run: as §2

[14] = test system: galium (catchweed bedstraw, Galium aparine); assay: Test A postemergence, visual injury rating; settings: 0 is no effect, 100 is complete control; for Galium plant response rating: 31 g ai/ha, 0 to 100 scale, approximately 10 days
How it was run: as §2

[15] = test system: Italian ryegrass (Lolium multiflorum); assay: Test A postemergence, visual injury rating; settings: 0 is no effect, 100 is complete control; for Ryegrass, Italian plant response rating: 31 g ai/ha, 0 to 100 scale, approximately 10 days
How it was run: as §2

[16] = test system: blackgrass (Alopecurus myosuroides); assay: Test A postemergence, visual injury rating; settings: 0 is no effect, 100 is complete control; for Blackgrass plant response rating: 31 g ai/ha, 0 to 100 scale, approximately 10 days
How it was run: as §2

[17] = test system: barnyardgrass (Echinochloa crus-galli); assay: Test A postemergence, visual injury rating; settings: 0 is no effect, 100 is complete control; for Barnyardgrass plant response rating: 31 g ai/ha, 0 to 100 scale, approximately 10 days
How it was run: as §2

kochia (Kochia scoparia) [18] = assay: Test A postemergence, visual injury rating; settings: 0 is no effect, 100 is complete control; for Kochia plant response rating: 31 g ai/ha, 0 to 100 scale, approximately 10 days
How it was run: as §2

[19] = 125 g ai/ha, 0 to 100 scale (0 no effect, 100 complete control)

COc1cccc(Oc2ncc(Cl)cn2)c1C(C)=O [Compound 51]
Plant response rating, Rice (rice (Oryza sativa)): 15
Plant response rating, Ducksalad [1]: 0
Plant response rating, Sedge, Umbrella [2]: 0
Plant response rating, Barnyardgrass [3]: 15
Plant response rating, Ragweed [4]: 0
Ragweed plant response rating [4, 19]: 0
Plant response rating, Pigweed [5]: 0
Pigweed plant response rating [5, 19]: 0
Plant response rating, Foxtail, Giant [6]: 0
Foxtail, Giant plant response rating [6, 19]: 0
Plant response rating, Ryegrass, Italian [7]: 0
Ryegrass, Italian plant response rating [7, 19]: 0
Plant response rating, Barnyardgrass [8]: 0
Barnyardgrass plant response rating [8, 19]: 0
Plant response rating, Kochia (kochia (Kochia scoparia) [9]): 0
Kochia plant response rating (kochia (Kochia scoparia) [9]; [19]): 0
Ragweed plant response rating [10]: 0
Ragweed plant response rating (0 to 100 scale) ([10]; 125 g ai/ha): 0
Pigweed plant response rating [11]: 0
Pigweed plant response rating (0 to 100 scale) ([11]; 125 g ai/ha): 0
Corn plant response rating (corn (Zea mays)): 0
Corn plant response rating (0 to 100 scale) (corn (Zea mays); 125 g ai/ha): 0
Wheat plant response rating [12]: 0
Wheat plant response rating (0 to 100 scale) ([12]; 125 g ai/ha): 0
Foxtail, Giant plant response rating [13]: 0
Foxtail, Giant plant response rating (0 to 100 scale) ([13]; 125 g ai/ha): 0
Galium plant response rating [14]: 0
Galium plant response rating (0 to 100 scale) ([14]; 125 g ai/ha): 10
Ryegrass, Italian plant response rating [15]: 0
Ryegrass, Italian plant response rating (0 to 100 scale) ([15]; 125 g ai/ha): 0
Blackgrass plant response rating [16]: 0
Blackgrass plant response rating (0 to 100 scale) ([16]; 125 g ai/ha): 0
Barnyardgrass plant response rating [17]: 0
Barnyardgrass plant response rating (0 to 100 scale) ([17]; 125 g ai/ha): 0
Kochia plant response rating (kochia (Kochia scoparia) [18]): 0
Kochia plant response rating (0 to 100 scale) (kochia (Kochia scoparia) [18]; 125 g ai/ha): 0

O=C(OCCC(F)(F)F)c1cc(C(F)(F)F)ccc1Oc1ncc(Cl)cn1 [Compound 53]
plant injury at 250 g/ha (rice (Oryza sativa); Oryza sativa, 312 h): 0%
pest or weed control at 250 g/ha ([1]; Heteranthera limosa, 312 h): 0%
pest or weed control at 250 g/ha ([2]; Cyperus difformis, 312 h): 0%
pest or weed control at 250 g/ha ([3]; Echinochloa crus-galli, 312 h): 0%
Plant response rating, Ragweed [4]: 0
pest or weed control at 125 g/ha ([4]; Ambrosia artemisiifolia, pre-emergence, 240 h, 125 g ai/ha, 0 to 100 scale (0 no effect, 100 complete control), read-out: Ragweed plant response rating): 0%
Plant response rating, Pigweed [5]: 0
pest or weed control at 125 g/ha ([5]; Amaranthus retroflexus, pre-emergence, 240 h, 125 g ai/ha, 0 to 100 scale (0 no effect, 100 complete control), read-out: Pigweed plant response rating): 0%
Plant response rating, Foxtail, Giant [6]: 0
pest or weed control at 125 g/ha ([6]; Setaria faberi, pre-emergence, 240 h, 125 g ai/ha, 0 to 100 scale (0 no effect, 100 complete control), read-out: Foxtail, Giant plant response rating): 0%
Plant response rating, Ryegrass, Italian [7]: 0
pest or weed control at 125 g/ha ([7]; Lolium multiflorum, pre-emergence, 240 h, 125 g ai/ha, 0 to 100 scale (0 no effect, 100 complete control), read-out: Ryegrass, Italian plant response rating): 0%
Plant response rating, Barnyardgrass [8]: 0
pest or weed control at 125 g/ha ([8]; Echinochloa crus-galli, pre-emergence, 240 h, 125 g ai/ha, 0 to 100 scale (0 no effect, 100 complete control), read-out: Barnyardgrass plant response rating): 0%
Plant response rating, Kochia (kochia (Kochia scoparia) [9]): 0
pest or weed control at 125 g/ha (kochia (Kochia scoparia) [9]; Bassia scoparia, pre-emergence, 240 h, 125 g ai/ha, 0 to 100 scale (0 no effect, 100 complete control), read-out: Kochia plant response rating): 0%
Ragweed plant response rating [10]: 0
pest or weed control at 125 g/ha ([10]; Ambrosia artemisiifolia, post-emergence, 240 h, 125 g ai/ha, read-out: Ragweed plant response rating (0 to 100 scale)): 0%
Pigweed plant response rating [11]: 0
pest or weed control at 125 g/ha ([11]; Amaranthus retroflexus, post-emergence, 240 h, 125 g ai/ha, read-out: Pigweed plant response rating (0 to 100 scale)): 0%
Corn plant response rating (corn (Zea mays)): 0
plant injury at 125 g/ha (corn (Zea mays); Zea mays, post-emergence, 240 h, 125 g ai/ha, read-out: Corn plant response rating (0 to 100 scale)): 0%
Wheat plant response rating [12]: 0
plant injury at 125 g/ha ([12]; Triticum aestivum, post-emergence, 240 h, 125 g ai/ha, read-out: Wheat plant response rating (0 to 100 scale)): 0%
Foxtail, Giant plant response rating [13]: 0
pest or weed control at 125 g/ha ([13]; Setaria faberi, post-emergence, 240 h, 125 g ai/ha, read-out: Foxtail, Giant plant response rating (0 to 100 scale)): 0%
Galium plant response rating [14]: 0
pest or weed control at 125 g/ha ([14]; Galium, post-emergence, 240 h, 125 g ai/ha, read-out: Galium plant response rating (0 to 100 scale)): 0%
Ryegrass, Italian plant response rating [15]: 0
pest or weed control at 125 g/ha ([15]; Lolium multiflorum, post-emergence, 240 h, 125 g ai/ha, read-out: Ryegrass, Italian plant response rating (0 to 100 scale)): 0%
Blackgrass plant response rating [16]: 0
pest or weed control at 125 g/ha ([16]; Alopecurus myosuroides, post-emergence, 240 h, 125 g ai/ha, read-out: Blackgrass plant response rating (0 to 100 scale)): 0%
Barnyardgrass plant response rating [17]: 0
pest or weed control at 125 g/ha ([17]; Echinochloa crus-galli, post-emergence, 240 h, 125 g ai/ha, read-out: Barnyardgrass plant response rating (0 to 100 scale)): 0%
Kochia plant response rating (kochia (Kochia scoparia) [18]): 0
pest or weed control at 125 g/ha (kochia (Kochia scoparia) [18]; Bassia scoparia, post-emergence, 240 h, 125 g ai/ha, read-out: Kochia plant response rating (0 to 100 scale)): 0%
